Measured values: patent US20240207285A1 (Melt Pharmaceuticals, Inc., priority 2022, published 2024)

Legend:
[1] = test system: subjects undergoing cataract extraction with lens replacement (CELR); experiment: Phase 2 treatment-emergent ocular adverse events (study eye, non-study eye, either eye); conditions: for Eye disorders, % / General disorders and administration site conditions, % / Infections and infestations, % / Injury, poisoning and procedural complications, % / Investigations, %: system organ class
Description: (§1) The Phase 2 study was factorial-designed, randomized, double-blind, placebo-controlled, and included parallel-cohorts. […] Primary efficacy endpoints included appropriate sedation during the cataract surgery and management of intraoperative pain during the surgery.
The study eye (TABLE 31) non-study eye (TABLE 32), or either eye (TABLE 33) was assessed. TEAES were defined as events that started on or after the date of the study drug administration through the end of Visit 4 or early withdrawal. Subjects with one or more adverse event within a level of Medical Dictionary for Regulatory Activities (MedDRA) were counted only once in that level.

[2] = test system: subjects undergoing cataract extraction with lens replacement (CELR); experiment: Phase 2 subjects achieving procedural sedation (RSS 2 or 3 without rescue); format: in vivo, human; conditions: Visit 2 (Day 1), Full Analysis Set
Description: A Phase 2 efficacy and safety study of the MELT-300 formulation was conducted at nine sites with over 300 enrolled subjects. MELT-300 is a sublingual, needle- and opioid-free formulation for procedural sedation during cataract surgery. […] MELT-300 utilizes fast-dissolving delivery technology (Zydis®, Catalent Inc.) to rapidly dissolve the tablet for absorption across the sublingual mucosa.
as §1
Achievement of procedural sedation was evaluated for each subject (see TABLE 19). Success for procedural sedation for this Phase 2 study was defined as achieving target sedation level (Ramsay Sedation Scale (RSS) scale level 2 or 3) at the start of surgery without the need for rescue sedation medication, and no need for intraoperative rescue sedation medication to maintain target sedation level.

[3] = test system: subjects undergoing cataract extraction with lens replacement (CELR); experiment: Phase 2 subjects completing the surgery without interruption; format: in vivo, human; conditions: Visit 2 (Day 1); Full Analysis Set
Description: (§2) The number of subjects achieving analgesia response (observed) in the full analysis set was determined. Success in analgesia response was defined as NPRS <4 at the available at the available four intraoperative timepoints and a failure otherwise (e.g., any interoperative pain rescue was assumed to be a failure. Results are provided in TABLE 24. The number of subjects completing the surgery is provided in TABLE 25, and the number of subjects completing the surgery without interruption is provided in TABLE 26. For this measure, subjects completing the surgery without interruption (other than rescue medication) due to pain or anxiety were considered successes. The number of subjects requiring rescue sedative medication and those requiring analgesic medication are provided in TABLES 27 and 28, respectively. For all TABLES 24-28, p-Values between pairs of treatments were calculated and are provided.

[4] = test system: subjects undergoing cataract extraction with lens replacement (CELR); experiment: Phase 2 subject-rated worst pain during surgery by the numeric pain rating scale; format: in vivo, human; conditions: carry forward
[5] = test system: subjects undergoing cataract extraction with lens replacement (CELR); experiment: Phase 2 subjects requiring rescue sedative medication; format: in vivo, human; conditions: Visit 2 (Day 1)
Description: as §2

[6] = test system: subjects undergoing cataract extraction with lens replacement (CELR); experiment: Phase 2 mean intraoperative analgesia by the numeric pain rating scale; format: in vivo, human
Description: An average of the available timepoints was also calculated.

[7] = test system: subjects undergoing cataract extraction with lens replacement (CELR); experiment: Phase 2 subjects completing the surgery; format: in vivo, human; conditions: Visit 2 (Day 1); Full Analysis Set
Description: as §2

[8] = test system: subjects undergoing cataract extraction with lens replacement (CELR); experiment: Phase 2 subjects receiving opioid concomitant medication postoperatively; format: in vivo, human
[9] = test system: subjects undergoing cataract extraction with lens replacement (CELR); experiment: Phase 2 subjects wanting study drug again for a second surgery (11-point Likert scale); format: in vivo, human
Excerpt: Post-operation, subjects were asked whether they would want the study drug again for a second surgery using an 11-point Likert scale of 0 (not likely at all) to 10 (extremely likely).

[10] = test system: subjects undergoing cataract extraction with lens replacement (CELR); experiment: Phase 2 subjects requiring rescue analgesic medication; format: in vivo, human; conditions: Visit 2 (Day 1); Full Analysis Set
Description: as §2

[11] = test system: subjects undergoing cataract extraction with lens replacement (CELR); experiment: Phase 2 subjects achieving analgesia response (NPRS <4); format: in vivo, human; conditions: Visit 2 (Day 1), observed
Description: as §2

[12] = Average of available timepoints, adjusted for site table, carry forward
[13] = Average of available timepoints, carry forward
[14] = Average of available timepoints, observed
[15] = Corneal incision, adjusted for site table, carry forward
[16] = Corneal incision, carry forward
[17] = Insertion of the phacoemulsion probe, adjusted for site table, carry forward
[18] = Insertion of the phacoemulsion probe, carry forward
[19] = Insertion of the phacoemulsion probe, observed
[20] = Insertion of the speculum, adjusted for site table, carry forward
[21] = Insertion of the speculum, carry forward
[22] = Insertion of the speculum, observed
[23] = Insertion of the synthetic replacement lens, adjusted for site table, carry forward
[24] = Insertion of the synthetic replacement lens, carry forward
[25] = Insertion of the synthetic replacement lens, observed
[26] = adjusted for site, carry forward
[27] = carry forward, repeated measures model
[28] = observed, repeated measures model
[29] = 11-point Likert scale 0 (not likely at all) to 10 (extremely likely)

Which results are given for `Cc1ncc2n1-c1ccc(Cl)cc1C(c1ccccc1F)=NC2` [Midazolam 3 mg]?
Cataract operation complication, % ([1]; Either Eye): (0) %; Conjunctivitis bacterial, % ([1]; Either Eye): (0) %; Corneal abrasion, % ([1]; Either Eye): (0) %; Corneal oedema, % ([1]; Either Eye): (0) %; Endophthalmitis, % ([1]; Either Eye): (0) %; Eye pain, % ([1]; Either Eye): (3.4) %; Foreign body sensation in eyes, % ([1]; Either Eye): (0) %; Intraocular pressure increased, % ([1]; Either Eye): (2.3) %; Ocular hypertension, % ([1]; Either Eye): (1.1) %; Pain, % ([1]; Either Eye): (0) %; Paracentesis eye, % ([1]; Either Eye): (0) %; Procedural pain, % ([1]; Either Eye): (1.1) %; Subjects with Any Treatment-Emergent Ocular AEs, % ([1]; Either Eye): (9.2) %; Vision blurred, % ([1]; Either Eye): (1.1) %; Eye disorders, % ([1]; Either Eye): (5.7) %; General disorders and administration site conditions, % ([1]; Either Eye): (0) %; Infections and infestations, % ([1]; Either Eye): (0) %; Injury, poisoning and procedural complications, % ([1]; Either Eye): (1.1) %; Investigations, % ([1]; Either Eye): (2.3) %; Conjunctivitis bacterial, % ([1]; Non-Study Eye): (0) %; Eye pain, % ([1]; Non-Study Eye): (0) %; Subjects with Any Treatment-Emergent Ocular AEs, % ([1]; Non-Study Eye): (1.1) %; Vision blurred, % ([1]; Non-Study Eye): (1.1) %; Eye disorders, % ([1]; Non-Study Eye): (1.1) %; Infections and infestations, % ([1]; Non-Study Eye): (0) %; Cataract operation complication, % ([1]; Study Eye): (0) %; Corneal abrasion, % ([1]; Study Eye): (0) %; Corneal oedema, % ([1]; Study Eye): (0) %; Endophthalmitis, % ([1]; Study Eye): (0) %; Eye pain, % ([1]; Study Eye): (3.4) %; Foreign body sensation in eyes, % ([1]; Study Eye): (0) %; Intraocular pressure increased, % ([1]; Study Eye): (2.3) %; Ocular hypertension, % ([1]; Study Eye): (1.1) %; Pain, % ([1]; Study Eye): (0) %; Procedural pain, % ([1]; Study Eye): (1.1) %; Subjects with Any Treatment-Emergent Ocular AEs, % ([1]; Study Eye): (8.0) %; Eye disorders, % ([1]; Study Eye): (4.6) %; General disorders and administration site conditions, % ([1]; Study Eye): (0) %; Infections and infestations, % ([1]; Study Eye): (0) %; Injury, poisoning and procedural complications, % ([1]; Study Eye): (1.1) %; Investigations, % ([1]; Study Eye): (2.3) %; Paracentesis eye, % ([1]; printed in the Non-Study Eye table): (0) %; Subjects achieving procedural sedation: No, % [2]: 35.8%; Subjects achieving procedural sedation: Yes, % ([2]; RSS 2 or 3 without rescue sedation): 64.2%; Subjects completing the surgery without interruption: No, % [3]: (0) %; Subjects completing the surgery without interruption: Yes, % [3]: (100.0) %; Worst Pain During Surgery, Mean Difference versus ketamine [4]: 0.38; Worst Pain During Surgery, Mean Difference versus placebo [4]: 0.05; Worst Pain During Surgery (NPRS), mean ([4]; Full Analysis Set): 4.0; Worst Pain During Surgery (NPRS), median ([4]; Full Analysis Set): 4.0; Subjects requiring rescue sedative medication: No, % ([5]; Full Analysis Set): (65.4) %; Subjects requiring rescue sedative medication: Yes, % ([5]; Full Analysis Set): (34.6) %; Subjects requiring rescue sedative medication: Intraoperatively, % ([5]; Intraoperatively): (8.6) %; Subjects requiring rescue sedative medication: Pre-operatively, % ([5]; Pre-operatively): (25.9) %; Intraoperative NPRS, LS Mean ([6]; Average of available timepoints, adjusted for site (study center covariate), carry forward): 2.12; Intraoperative NPRS, mean [6, 12]: 2.37; Intraoperative NPRS, median [6, 12]: 2.00; Intraoperative NPRS, mean [6, 13]: 2.37; Intraoperative NPRS, median [6, 13]: 2.00; Intraoperative NPRS, LS Mean ([6]; Average of available timepoints, carry forward, repeated measures model): 2.37; Intraoperative NPRS, mean [6, 14]: 2.18; Intraoperative NPRS, median [6, 14]: 2.00; Intraoperative NPRS, LS Mean ([6]; Average of available timepoints, observed, repeated measures model): 2.46; Intraoperative NPRS, mean [6, 15]: 1.8; Intraoperative NPRS, median [6, 15]: 1.0; Intraoperative NPRS, mean [6, 16]: 1.8; Intraoperative NPRS, median [6, 16]: 1.0; Intraoperative NPRS, mean ([6]; Corneal incision, observed): 1.8; Intraoperative NPRS, median ([6]; Corneal incision, observed): 1.0; Intraoperative NPRS, mean [6, 17]: 2.9; Intraoperative NPRS, median [6, 17]: 3.0; Intraoperative NPRS, mean [6, 18]: 2.9; Intraoperative NPRS, median [6, 18]: 3.0; Intraoperative NPRS, mean [6, 19]: 2.5; Intraoperative NPRS, median [6, 19]: 2.0; Intraoperative NPRS, mean [6, 20]: 1.1; Intraoperative NPRS, median [6, 20]: 0.0; Intraoperative NPRS, mean [6, 21]: 1.1; Intraoperative NPRS, median [6, 21]: 0.0; Intraoperative NPRS, mean [6, 22]: 1.1; Intraoperative NPRS, median [6, 22]: 0.0; Intraoperative NPRS, mean [6, 23]: 3.6; Intraoperative NPRS, median [6, 23]: 4.0; Intraoperative NPRS, mean [6, 24]: 3.6; Intraoperative NPRS, median [6, 24]: 4.0; Intraoperative NPRS, mean [6, 25]: 2.9; Intraoperative NPRS, median [6, 25]: 3.0; Intraoperative NPRS, LS Mean Difference versus ketamine [6, 26]: 0.22; Intraoperative NPRS, LS Mean Difference versus placebo [6, 26]: −0.08; Intraoperative NPRS, LS Mean Difference versus ketamine [6, 27]: 0.20; Intraoperative NPRS, LS Mean Difference versus placebo [6, 27]: −0.12; Intraoperative NPRS, LS Mean Difference versus ketamine [6, 28]: 0.24; Intraoperative NPRS, LS Mean Difference versus placebo [6, 28]: −0.01; Subjects completing the surgery: No, % [7]: 0 (0) %; Subjects completing the surgery: Yes, % [7]: 100.0%; Received Postoperative Opioid on Day 2: No, % ([8]; Day 2): (100.0) %; Received Postoperative Opioid on Day 2: Yes, % ([8]; Day 2): (0.0) %; Received Postoperative Opioid on Day 2-8: No, % ([8]; Day 2-8): (100.0) %; Received Postoperative Opioid on Day 2-8: Yes, % ([8]; Day 2-8): (0.0) %; Want Study Drug Again, mean [9, 29]: 8.4; Want Study Drug Again, median [9, 29]: 10.0; Want Study Drug Again, Mean Difference versus ketamine ([9]; unpaired t-test): 0.80; Want Study Drug Again, Mean Difference versus placebo ([9]; unpaired t-test): 0.75; Subjects requiring rescue analgesic medication: No, % [10]: (56.8) %; Subjects requiring rescue analgesic medication: Yes, % [10]: (43.2) %; Subjects achieving analgesia response: Yes, % ([11]; NPRS <4 at four intraoperative timepoints): 40.7%; Subjects achieving analgesia response: No, % [11]: 59.3%
